Reference: PubChem BioAssay (NCI)
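48-hour exposure; five concentrations; linearly interpolated endpoints. At the TGI there is no net growth.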

Key:
Assay in all cases: NCI-60 cell line screen, 48 h
CAKI-1 renal = tested on: CAKI-1 renal
EKVX NSCLC = tested on: EKVX NSCLC
HCT-15 colon = tested on: HCT-15 colon
HS 578T breast = tested on: HS 578T breast
IGROV1 ovarian = tested on: IGROV1 ovarian
K-562 leukemia = tested on: K-562 leukemia
M14 melanoma = tested on: M14 melanoma
MALME-3M melanoma = tested on: MALME-3M melanoma
MDA-MB-435 = tested on: MDA-MB-435
OVCAR-4 ovarian = tested on: OVCAR-4 ovarian
RXF 393 renal = tested on: RXF 393 renal
SK-OV-3 ovarian = tested on: SK-OV-3 ovarian
SNB-19 CNS = tested on: SNB-19 CNS
T-47D breast = tested on: T-47D breast
UACC-257 melanoma = tested on: UACC-257 melanoma

SMILES | TGI (CAKI-1 renal) [µM] | TGI (EKVX NSCLC) [µM] | TGI (HCT-15 colon) [µM] | TGI (HS 578T breast) [µM] | TGI (IGROV1 ovarian) [µM] | TGI (K-562 leukemia) [µM] | TGI (M14 melanoma) [µM] | TGI (MALME-3M melanoma) [µM] | TGI (MDA-MB-435) [µM] | TGI (OVCAR-4 ovarian) [µM] | TGI (RXF 393 renal) [µM] | TGI (SK-OV-3 ovarian) [µM] | TGI (SNB-19 CNS) [µM] | TGI (T-47D breast) [µM] | TGI (UACC-257 melanoma) [µM]
COC(=O)c1ccc(NCc2cc(O)ccc2O)cc1 | 37.4 | 37.1 | 19.5 | 18.5 | 24.5 | 15.1 | 39.5 | 15.7 | 17.3 | 30.5 | 20.2 | 48.8 | 70.5 | 3.4 | 29.2
CCOC(=O)C(=O)C(CCC(=O)c1ccc2ccccc2c1O)C(=O)OCC (stereo not given) | > 100 | > 100 | > 100 | > 100 | > 100 | > 100 | > 100 | > 100 | > 100 | > 100 | > 100 | > 100 | > 100 | > 100 | > 100
COP(=O)(OC)/C(=C\c1cn(C(c2ccccc2)(c2ccccc2)c2ccccc2)cn1)NC(C)=O | > 100 | > 100 | > 100 | > 100 | > 100 | > 100 | > 100 | > 100 | > 100 | > 100 | 83.6 | > 100 | > 100 | > 100 | > 100
COc1ccc(CCNCCCC2c3ccccc3-c3ccccc32)cc1OC | 33.4 | 30.8 | 29 | 39.8 | 26.8 | 49.2 | 11.8 | 27 | 28.3 | 30.5 | 26.1 | 32.9 | 31.8 | 34.3 | 28.1
CN(C)CC1CN=C(NC(=O)Nc2ccccc2)O1 (stereo not given) | > 100 | > 100 | > 100 | > 100 | > 100 | > 100 | > 100 | > 100 | > 100 | > 100 | > 100 | > 100 | > 100 | > 100 | > 100
CC(C)C(NCc1c(O)ccc2c(-c3ccccc3)cc(=O)oc12)C(=O)O (stereo not given) | > 100 | > 100 | > 100 | > 100 | > 100 | > 100 | > 100 | > 100 | > 100 | > 100 | > 100 | > 100 | > 100 | > 100 | > 100
COc1cc(C(=O)Oc2c(C#N)sc3c2c(=O)n(-c2ccccc2)c(=S)n3-c2ccccc2)cc(OC)c1OC | 84.3 | 42.2 | 43 | 42.5 | 41 | 82.2 | 25.6 | 28 | 36.8 | 80.9 | 47.9 | > 100 | 72 | > 100 | > 100
COc1ccc(NC2CC(C)N(C(=O)c3ccccc3)O2)cc1 (stereo not given) | > 10 | > 10 | > 10 | > 10 | > 10 | > 10 | > 10 | > 10 | > 10 | > 10 | > 10 | > 10 | > 10 | > 10 | > 10
O=c1oc2ccc([N+](=O)[O-])cc2c(Nc2ccc3c(c2)S(=O)(=O)c2ccccc2O3)c1[N+](=O)[O-] | > 100 | > 100 | > 100 | > 100 | > 100 | > 100 | > 100 | > 100 | > 100 | > 100 | > 100 | > 100 | > 100 | > 100 | > 100
CC1=NN=C(N)NC1=CC(Sc1ccc(Cl)cc1)c1c(O)ccc2ccccc12 (stereo not given) | > 69.6 | 69 | > 63.3 | 41.3 | 37.3 | > 100 | 36.2 | 20.4 | > 86.6 | > 64.7 | 20.3 | 67.4 | > 74.9 | 58.9 | > 87.1
S=C1N=C(Cl)/C(=C\c2ccccc2)N1 | > 100 | > 100 | > 100 | > 100 | > 100 | > 100 | > 100 | > 100 | > 100 | > 100 | > 100 | > 100 | > 100 | > 100 | > 100
Cc1cc2c(cc1Cl)SC(NNc1ccc([N+](=O)[O-])cc1)=NS2(=O)=O | > 10 | > 10 | > 10 | > 10 | > 10 | > 10 | > 10 | > 10 | > 10 | > 10 | > 10 | > 10 | > 10 | > 10 | > 10
S=c1[nH]nc(NNc2ccccc2)n1Nc1ccccc1 | > 100 | > 100 | > 100 | > 100 | > 100 | > 100 | > 100 | > 100 | > 100 | > 100 | > 100 | > 100 | > 100 | > 59.6 | > 69.3
CC(C)C(NC(=O)C(Cc1ccccc1)NC(=O)[C@H]1CCC[C@H]1NC(=O)C(N)Cc1ccc(O)cc1)C(N)=O (stereo not given in full) | > 100 | > 100 | > 100 | > 100 | > 100 | > 100 | > 100 | > 100 | > 100 | > 100 | > 100 | > 100 | > 100 | > 100 | > 100
CNCCC=C1c2ccccc2CCc2ccccc21 | 27.7 | 29.2 | 32.3 | 51.1 | 30.7 | 30.5 | 14.7 | 30.3 | 28.2 | 28.6 | 22.6 | 25.2 | 31.6 | 23.5 | 19.9
COc1cc2c(cc1OC)C(=O)N(NC1=NCCN1)C2=O | > 100 | > 100 | > 100 | > 100 | > 100 | > 100 | > 100 | > 100 | > 100 | > 100 | > 100 | > 100 | > 100 | > 100 | > 100
O=C1Oc2cc3c(c4cccc1c24)O[C@H](c1ccccc1)[C@@H](c1ccccc1)[C@@H]3c1ccc(Cl)cc1 | > 100 | > 100 | > 100 | > 100 | 77.4 | > 100 | > 100 | > 100 | > 100 | > 100 | 40.1 | > 100 | > 100 | > 100 | > 100
COc1ccc(C(=O)Nc2ccc3oc(-c4ccccc4)nc3c2)cc1 | > 100 | > 100 | > 100 | > 100 | > 100 | > 100 | > 100 | > 100 | > 100 | > 100 | > 100 | > 100 | > 100 | > 100 | > 100
CC(=O)O[C@@H](C1C[C@@H](C)[C@H]2[C@@](O)(O1)[C@H](O)[C@@]1(C)C3=CC[C@H]4C(C)(C)[C@@H](OC5OCC(O)C(O)C5O)CC[C@@]45C[C@@]35CC[C@]21C)C(C)(C)O (stereo not given in full) | > 100 | 61.6 | 71.1 | > 100 | > 100 | > 100 | > 100 | 51 | 53.3 | > 100 | 36.9 | 63.9 | > 100 | 67.7 | 38.4
COc1ccc(N2C(=O)CC(c3c[nH]c4ncccc34)C2=O)cc1 (stereo not given) | 37.2 | > 75.6 | 59.3 | > 100 | 44.6 | 24.9 | 44.9 | 40.5 | 19.4 | 47 | 42.5 | > 100 | > 100 | 50.4 | 38.5
O=c1[nH]c2c(c(=O)[nH]1)SSC2 | 44.5 | > 81.4 | > 91.9 | 56 | 56.8 | 5.52 | 4.91 | 10.1 | 4.67 | 31.4 | 28.5 | 50.9 | > 81.3 | 25.2 | 14.8
O=C(NNC(=O)c1ccccc1O)c1ccc(O)cc1 | > 100 | > 100 | > 100 | > 100 | > 100 | > 100 | > 100 | > 100 | > 100 | > 100 | > 100 | > 100 | > 100 | > 100 | > 100
